These are literature values, as cited in patent US20070275934A1, “Treatment of pancreatic cancer with active vitamin d compounds in combination with other treatments” (priority 2004, published 2007).

This data set concerns patients with refractory malignancies. The settings on record: weekly HDPA, Beer et al. 2001.

Consider `C=C1/C(=C\C=C2/CCC[C@]3(C)[C@@H]([C@H](C)CCCC(C)(C)O)CC[C@@H]23)C[C@@H](O)C[C@@H]1O` [calcitriol, 1α,25-dihydroxyvitamin D3], for which the Dose-limiting toxicity result is on record as “no dose-limiting toxicity” and the “Mean peak calcitriol levels” value is “within the therapeutic range”.
